Measured values: patent US9113629B2, “4-amino-6-(4-substituted-phenyl)-picolinates and 6-amino-2-(4-substituted-phenyl)-pyrimidine-4-carboxylates and their use as herbicides” (DOW AGROSCIENCES LLC, priority 2013, dated 2015)
Read-outs that look alike come from different tables or passages of the source.

How the values were obtained:
[1] = test system: Key Broadleaf Weed and Crop Species; experiment: Post-emergent Test II herbicidal activity (Table 5); assay type: in vivo; details: post-emergence, 336 h, 140 g ai/ha, post-emergent, 14 days after application
Experimental: (§1) Post-emergent Test II: Seeds or nutlets of the desired test plant species were planted in Sun Gro Metro-Mix® 360 planting mixture, which typically has a pH of 6.0 to 6.8 and an organic matter content of about 30 percent, in plastic pots with a surface area of 64 square centimeters. When required to ensure good germination and healthy plants, a fungicide treatment and/or other chemical or physical treatment was applied. The plants were grown for 7-21 d in a greenhouse with an approximate 15 h photoperiod which was maintained at about 23-29° C. during the day and 22-28° C. during the night. Nutrients and water were added on a regular basis and supplemental lighting was provided with overhead metal halide 1000-Watt lamps as necessary. The plants were employed for testing when they reached the first or second true leaf stage.
(§2) A weighed amount, determined by the highest rate to be tested, of each test compound was placed in a 25 mL glass vial and was dissolved in 4 mL of a 97:3 v/v mixture of acetone and DMSO to obtain concentrated stock solutions. […] The concentrated stock solutions obtained were diluted with 20 mL of an aqueous mixture containing acetone, water, isopropyl alcohol, DMSO. Atplus 411F crop oil concentrate, and Triton® X-155 surfactant in a 48.5:39:10:1.5:1.0:0.02 v/v ratio to obtain spray solutions containing the highest application rates. Additional application rates were obtained by serial dilution of 12 mL of the high rate solution into a solution containing 2 mL of 97:3 v/v mixture of acetone and DMSO and 10 mL of an aqueous mixture containing acetone, water, isopropyl alcohol, DMSO, Atplus 411F crop oil concentrate, and Triton X-155 surfactant in a 48.5:39:10:1.5:1.0:0.02 v/v ratio to obtain ½×, ¼×, ⅛× and 1/16× rates of the high rate. Compound requirements are based upon a 12 mL application volume at a rate of 187 liters per hectare (L/ha). Formulated compounds were applied to the plant material with an overhead Mandel track sprayer equipped with 8002E nozzles calibrated to deliver 187 L/ha over an application area of 0.503 square meters at a spray height of 18 inches (43 cm) above the average plant canopy height. Control plants were sprayed in the same manner with the solvent blank.
(§3) The treated plants and control plants were placed in a greenhouse as described above and watered by subirrigation to prevent wash-off of the test compounds. After 14 d, the condition of the test plants as compared with that of the untreated plants was determined visually and scored on a scale of 0 to 100 percent where 0 corresponds to no injury and 100 corresponds to complete kill.

[2] = test system: Key Grass and Sedge Weeds as well as Grass Crops; experiment: Post-emergent Test II herbicidal activity (Table 6); assay type: in vivo; details: post-emergence, 336 h, application rate 140 g ai/ha
Experimental: as §1, §2, §3

[3] = ABUTH: velvetleaf (Abutilon theophrasti), read-out: Visual Growth Reduction (%) 14 Days After Application ABUTH
[4] = AMARE: redroot pigweed (Amaranthus retroflexus), read-out: Visual Growth Reduction (%) 14 Days After Application AMARE
[5] = BRSNN: oilseed-rape, canola (Brassica napus), read-out: Visual Growth Reduction (%) 14 Days After Application BRSNN
[6] = CHEAL: lambsquarters (Chenopodium album), read-out: Visual Growth Reduction (%) 14 Days After Application CHEAL
[7] = EPHHL: wild poinsettia (Euphorbia heterophylla), read-out: Visual Growth Reduction (%) 14 Days After Application EPHHL
[8] = HELAN: sunflower (Helianthus annuus), read-out: Visual Growth Reduction (%) 14 Days After Application HELAN
[9] = VIOTR: wild pansy (Viola tricolor), read-out: Visual Growth Reduction (%) 14 Days After Application VIOTR
[10] = Triticum aestivum, TRZSS (wheat), read-out: Visual Growth Reduction (%) 14 Days After Application, TRZSS
[11] = CYPES: yellow nutsedge (Cyperus esculentus), read-out: Visual Growth Reduction (%) 14 Days After Application, CYPES
[12] = DIGSA: crabgrass (Digitaria sanguinalis), read-out: Visual Growth Reduction (%) 14 Days After Application, DIGSA
[13] = ECHCG: barnyardgrass (Echinochloa crus-galli), read-out: Visual Growth Reduction (%) 14 Days After Application, ECHCG
[14] = ORYSA: rice (Oryza sativa), read-out: Visual Growth Reduction (%) 14 Days After Application, ORYSA
[15] = SETFA: giant foxtail (Setaria faberi), read-out: Visual Growth Reduction (%) 14 Days After Application, SETFA
[16] = SORVU: grain sorghum (Sorghum vulgare), read-out: Visual Growth Reduction (%) 14 Days After Application, SORVU
[17] = ZEAMX: maize, corn (Zea mays), read-out: Visual Growth Reduction (%) 14 Days After Application, ZEAMX

Row | Structure (SMILES) | pest or weed control at 140 g/ha [1, 3] | pest or weed control at 140 g/ha [1, 4] | pest or weed control at 140 g/ha [1, 5] | pest or weed control at 140 g/ha [1, 6] | pest or weed control at 140 g/ha [1, 7] | pest or weed control at 140 g/ha [1, 8] | pest or weed control at 140 g/ha [1, 9] | pest or weed control at 140 g/ha [2, 10] | pest or weed control at 140 g/ha [2, 11] | pest or weed control at 140 g/ha [2, 12] | pest or weed control at 140 g/ha [2, 13] | pest or weed control at 140 g/ha [2, 14] | pest or weed control at 140 g/ha [2, 15] | pest or weed control at 140 g/ha [2, 16] | pest or weed control at 140 g/ha [2, 17] | melting point
1 | COC(=O)c1nc(-c2ccc(C#N)cc2)c(Cl)c(N)c1Cl [Compound 1] | 60 to 74% | 60 to 74% | 0 to 29% | 85 to 94% | 0 to 29% | 95 to 100% | 0 to 29% | 0 to 29% | 30 to 44% | 0 to 29% | 0 to 29% | 0 to 29% | 0 to 29% | 0 to 29% | 0 to 29% | 133.4 to 134.8 °C
2 | C#Cc1ccc(-c2nc(C(=O)O)c(Cl)c(N)c2C)cc1F [Compound 6, 4-Amino-3-chloro-6-(4-ethynyl-3-fluorophenyl)-5-methylpicolinic acid] |  |  |  |  |  |  |  |  |  |  |  |  |  |  |  | 175 to 176.5 °C
3 | Nc1cc(-c2ccc(OC(F)F)cc2)nc(C(=O)O)c1Cl [Compound 10] | 95 to 100% | 95 to 100% | 60 to 74% | 75 to 84% | 95 to 100% | 85 to 94% | 0 to 29% | 60 to 74% | 0 to 29% | 75 to 84% | 85 to 94% | 0 to 29% | 95 to 100% | 75 to 84% | 60 to 74% | 170.4 to 172.1 °C
4 | N#Cc1ccc(-c2nc(C(=O)O)c(Cl)c(N)c2Cl)cc1 [Compound 14] | 0 to 29% | 0 to 29% | 0 to 29% | 95 to 100% | 0 to 29% | 95 to 100% | 0 to 29% | 0 to 29% | 0 to 29% | 0 to 29% | 0 to 29% | 0 to 29% | 0 to 29% | 0 to 29% | 0 to 29% | 178 to 179.7 °C
5 | COC(=O)c1nc(-c2ccc(OC(F)F)cc2)c(Cl)c(N)c1Cl [Compound 15] | 85 to 94% | 0 to 29% | 0 to 29% | 30 to 44% | 0 to 29% | 95 to 100% | 0 to 29% | 0 to 29% | 0 to 29% | 0 to 29% | 0 to 29% | 0 to 29% | 0 to 29% | 0 to 29% | 0 to 29% | 102.4 to 103.6 °C
6 | COc1c(N)nc(-c2ccc(C#N)cc2)nc1C(=O)O [Compound 25] | 0 to 29% | 0 to 29% | 0 to 29% | 0 to 29% | 0 to 29% | 0 to 29% | 0 to 29% | 0 to 29% | 0 to 29% | 0 to 29% | 0 to 29% | 0 to 29% | 0 to 29% | 0 to 29% | 0 to 29% | 185.2 to 186.1 °C
7 | COC(=O)c1nc(-c2ccc(OC(F)(F)F)cc2)nc(N)c1OC [Compound 30] | 45 to 59% | 0 to 29% | 0 to 29% | 0 to 29% | 95 to 100% | 0 to 29% | 0 to 29% | 0 to 29% | 0 to 29% | 0 to 29% | 0 to 29% | 0 to 29% | 0 to 29% | 0 to 29% | 0 to 29% | 122 to 123.6 °C
8 | C=Cc1c(C(=O)OC)nc(-c2ccc(I)cc2)c(F)c1N [Compound 139, methyl 4-amino-5-fluoro-6-(4-iodophenyl)-3-vinylpicolinate] |  |  |  |  |  |  |  |  |  |  |  |  |  |  |  | 95 to 96 °C
9 | C=Cc1c(N)nc(-c2ccc(I)cc2)nc1C(=O)OC [Compound 164, methyl 6-amino-2-(4-iodophenyl)-5-vinylpyrimidine-4-carboxylate] |  |  |  |  |  |  |  |  |  |  |  |  |  |  |  | 142 to 144 °C
10 | COc1c(N)nc(-c2ccccc2)nc1C(=O)O [Compound 207] |  |  |  |  |  |  |  |  |  |  |  |  |  |  |  | 130 to 132 °C
